# Measurements reported in PMC7241010, “In Vivo and In Vitro Study of N-Methyltaurine on Pharmacokinetics and Antimuscle Atrophic Effects in Mice” (ACS Omega, 2020).
# Where two headings read alike, the source gives them in different places.
# Key:
# [1] = test system: ICR mice; experiment: Dexamethasone-induced muscle atrophy model in ICR mice; type: in vivo, mouse
# Protocol: Next, to investigate the effect of NMT on skeletal muscle atrophy, a mouse atrophy model induced by Dex was employed[41] (Figure 5). Mice were administered with Dex daily (i.p., 10 mg/kg body weight) and maintained on drinking water either with no addition or containing 0.5% NMT.
# To induce muscle atrophy in ICR mice, Dex was suspended in saline (10 mg/mL), and the mixture was intraperitoneally (i.p.) injected at 10 mg/kg body weight once a day for 10 days.[41] Body weight was monitored daily. Then, mice were euthanized by cervical dislocation, and muscles were isolated from the mice. The isolated tissue was immediately froze in liquid nitrogen and stored at −80 °C.
# [2] = test system: C2C12 myotubes; experiment: Dex-induced myotube atrophy in C2C12 cells (myotube diameter); type: cell-based, mouse; details: 24 h
# Protocol: To explore the beneficial effect of NMT against skeletal muscle atrophy in mice, we investigated its protective effect using cultures of C2C12 myotubes.
# C2C12 mouse myoblasts were purchased from ATCC (American Type Culture Collection) and were cultured in DMEM containing 10% fetal bovine serum. Cell lines were not tested for mycoplasma contamination in the present study. To induce differentiation of the myotubes, cells were cultured in DMEM containing 2% fetal bovine serum for 1 week. After differentiation, cells were treated with Dex (final concentration, 50 μM) with or without NMT.[28] Myotube diameter was measured from microscopic images taken after treatment with Dex.
# [3] = rats; cited from earlier work
# [4] = test system: taurine transport system; details: human intestine cells, cited from earlier work
# [5] = test system: C2C12 myotubes; details: in vitro exposure to dexamethasone; cited from earlier work
# [6] = Pharmacokinetics and oral bioavailability of NMT in mice (plasma NMT by HPLC); type: in vivo, mouse; details: for AUC(0-t): read-out: AUC0–180min (converted)
# Protocol: To study the pharmacokinetic parameters and the oral bioavailability of NMT, we tested the serum concentration of NMT after p.o. or i.v. injection of NMT (Figure 2). Biological fluid was sampled following the injection of NMT. […] Oral bioavailability is defined as the fraction of the dose that reaches the systemic circulation. Blood samples were collected at 10 to 180 min after NMT administration and then examined by HPLC.
# All experimental procedures were approved by the Institutional Animal Care and Use Committee of the Fukui Prefectural University. Three-month-old male ICR mice were used for this study. […] Blood samples were collected from the facial vein (for i.v. injection) or the tail vein (for p.o. injection) at 10, 20, 30, 60, 120, and 180 min after NMT administration.
# (§1) Plasma samples were mixed with an equal volume of 5% sulfosalicylic acid (SSA) containing the internal standard chemical sarcosine (0.1 mM). Tissues in 10 volumes of 5% SSA containing an internal control were homogenized using a Polytron homogenizer. Samples were centrifuged, and the supernatant was filtered with 0.45 μm filters and then neutralized with NaHCO3.
# (§2) NMT was measured by HPLC after derivatization with 9-fluorenylmethyloxycarbonyl chloride (FMOC-Cl) according to a previous report with brief modification.[49] First, equal volumes of o-phthalaldehyde (OPA) reagent (5 mM OPA, 23 mM 3-mercaptopropionic acid, 10 mM boric acid, pH 10.4) was added to acid-extracted samples and incubated at room temperature for 1 min for the derivatization of the primary amine. Then, 1 volume of FMOC-Cl reagent (3 mM FMOC-Cl in acetone) was added to the mixture and incubated for additional 1 min for the derivatization of residual secondary amine. After dilution with HPLC mobile phase buffer A (10 mM potassium phosphate, pH 7.3), samples were subjected to HPLC analysis performed on an UltiMate 3000 rapid separation binary system (Thermo Fisher, USA) or Prominence HPLC system (Shimadzu, Japan). Samples were injected into a ZORBAX Eclipse Plus C18 column (Agilent, USA). Mobile phases A (10 mM potassium phosphate, pH 7.3) and B (acetonitrile) were used. The column oven temperature was set at 40 °C. The flow rate of the mobile phase was 1.5 mL/min. The gradient of the mobile phase was increased from 2 to 88% buffer B (from 0.84 to 11.9 min) and was kept at 100% buffer B for 3 min followed by 2% for 15 min. N-Methyltaurine derivatized by FMOC-Cl was monitored by a fluorescence detector (excitation: 266 nm, emission: 305 nm) and diode array detector (Shimadzu).
# Pharmacokinetic parameters were calculated by using R (Package “PK”, ver. 1.3-4).
# [7] = Tissue distribution of NMT after 0.5% NMT in drinking water; type: in vivo, mouse; details: mice
# Protocol: To evaluate the tissue distribution of NMT in mice after administration in the drinking water, the concentration of NMT was measured in tissues and serum 4 days after the original administration (Figure 3). The tissue concentration of NMT was analyzed by HPLC. NMT was widely distributed in the tissues of mice, including in brain, liver, kidney, heart, and muscles. The tissue concentration of NMT was much higher than that of serum concentration, with one exception, the skin (Figure 3).
# To measure NMT in the serum and tissues after long-term treatment with NMT, NMT dissolved in the drinking water (0.5%) was given to mice for 4 days. After that, mice were anesthetized by medetomidine (0.3 mg/kg body weight; FUJIFILM Wako Pure Chemical), butorphanol (5 mg/kg body weight; FUJIFILM Wako Pure Chemical), and midazolam (4 mg/kg body weight; FUJIFILM Wako Pure Chemical), and then blood and tissues were collected. Tissues were kept in −80 °C until use.
# as §1, §2
# [8] = test system: taurine uptake in brain slices; details: cited from earlier work
# [9] = test system: Atrogin-1 and MuRF1; experiment: Gene expression of Atrogin-1 and MuRF1 in C2C12 myotubes (qRT-PCR); type: cell-based, mouse; details: C2C12 myotubes treated with Dex and NMT
# Protocol: We tested whether these ubiquitin ligases are involved in the suppressive effect of NMT against muscle atrophy in the C2C12 myotube.
# Total RNA was isolated from C2C12 cells using Sepasol Super G (Nacalai Tesque, Kyoto, Japan), and cDNA was generated by using ReverTra Ace (Toyobo, Osaka, Japan). Quantitative RT-PCR analysis was performed using Applied Biosystems StepOne (Applied Biosystems) with THUNDERBIRD SYBR qPCR Mix (Toyobo). The primers used are as follows: Atrogin-1 forward: 5′-TTCAG CAGCC TGAAC TACGA-3′, reverse: 5′-AGTAT CCATG GCGCT CCTTC-3′. MuRF1 forward: 5′-GCGTG ACCAC AGAGG GTAAA-3′, reverse: 5′-CTCTG CGTCC AGAGC GTG-3′. GAPDH forward: 5′-GCCGG TGCTG AGTAT GTCGT-3′, reverse: 5′-CCCTT TTGGC TCCAC CCTT-3′.
# [10] = Dex i.p. 10 mg/kg daily for 10 days, 0.5% NMT in drinking water
# [11] = drinking water containing 0.5% NMT for 4 days, average
compound,measurement,setting,value
"C[C@@H]1C[C@H]2[C@@H]3CCC4=CC(=O)C=C[C@]4(C)[C@@]3(F)[C@@H](O)C[C@]2(C)[C@@]1(O)C(=O)CO [Dex, dexamethasone, reference compound]",effect on body weight,[1]; Dex i.p. 10 mg/kg body weight daily,caused a continuous loss of body weight
same,effect on myotube width,[2]; Dex 50 μM,reduced the width of the myotube
NCCS(=O)(=O)O [taurine],oral bioavailability,[3],~100%
same,concentration at which transport activity is almost saturated,[4],~50 µM
same,Km,[4]; read-out: Km of taurine transport,4.8 µM
same,effect on Dex-induced muscle atrophy in vitro,[5],attenuates muscle atrophy
"CNCCS(=O)(=O)O [NMT, N-Methyltaurine]",effect on Dex-induced loss in wet weight of gastrocnemius muscle,[1]; [10],attenuated Dex-induced loss in wet weight
same,effect on Dex-induced loss in wet weight of tibial anterior muscle,[1]; [10],attenuated Dex-induced loss in wet weight
same,effect on Dex-induced body weight loss,"[1]; Dex i.p. 10 mg/kg daily, 0.5% NMT in drinking water",attenuated body weight loss
same,effect on Dex-induced decline in myotube width,[2]; Dex 50 μM + NMT 20 mM,prevented the decline in myotube width
same,AUC(0-t),"[6]; male, ICR, mouse, iv, i.v. 0.5 mg/kg BW, plasma",900 ng·h/mL
same,bioavailability,"[6]; male, ICR, mouse, plasma, oral, 0.5 mg/kg, p.o. 0.5 mg/kg BW vs i.v. 0.5 mg/kg BW, read-out: bioavailability",96%
same,bioavailability,"[6]; male, ICR, mouse, plasma, oral, 5 mg/kg BW, p.o. 5 mg/kg BW vs i.v. 0.5 mg/kg BW, read-out: bioavailability",58%
same,AUC(0-t),"[6]; male, ICR, mouse, po, p.o. 0.5 mg/kg BW, plasma",865 ng·h/mL
same,AUC(0-t),"[6]; male, ICR, mouse, po, p.o. 5 mg/kg BW, plasma",5250 ng·h/mL
same,bioavailability,"[6]; p.o. 0.5 mg/kg BW vs i.v. 0.5 mg/kg BW, 0.5 mg/kg",96.1%
same,Kp at 4 days,"[7]; ICR, mouse, 0.5 % in drinking water, oral NMT, various tissues, skin is an exception, read-out: tissue NMT relative to serum concentration of NMT",10 to 100
same,"Tissue NMT, brain",[7]; [11],0.84 nmol/g wet
same,"Tissue NMT, heart",[7]; [11],3.5 nmol/g wet
same,"Tissue NMT, kidney",[7]; [11],0.39 nmol/g wet
same,"Tissue NMT, liver",[7]; [11],0.50 nmol/g wet
same,"Tissue NMT, muscle",[7]; [11],0.17 nmol/g wet
same,"Tissue NMT, serum",[7]; [11],0.033 nmol/g wet
same,"Tissue NMT, skin",[7]; [11],0.019 nmol/g wet
same,effect on taurine uptake,[8],inhibits taurine uptake
same,effect on Dex-induced Atrogin-1 and MuRF1 gene expression,[9],did not act by downregulating those genes
